Source: PubChem BioAssay AID1963977 (Molecular Pharmacology Branch, DTP, NCI, 2024)

System: 624824-186-R-J3-PDC multicell spheroids, viability
Assay: Anticancer human tumor 624824-186-R-J3-PDC patient-derived colon adenocarcinoma cell line growth inhibition [PI3K]
Details: for viability, T/C: stronger effect = lower value
Method in brief: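 Tumor cells grown as multi-cell spheroids with HUVEC endothelial cells and MSC fibroblast-like stroma were treated with targeted agents combined with inavolisib, alpelisib, duvelisib or copanlisib. Doses fell in half-log steps from near clinical Cmax, else from 10 microM. Viability was measured.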

[1] = curve of first compound, second compound 0.00316 µM
[2] = curve of first compound, second compound 0.01 µM
[3] = curve of first compound, second compound 0.0316 µM
[4] = curve of first compound, second compound 0.1 µM
[5] = curve of first compound, second compound 0.316 µM
[6] = curve of first compound, second compound 1 µM
[7] = second compound 0.00316 µM, first compound 0.0316 µM
[8] = second compound 0.00316 µM, first compound 0.1 µM
[9] = second compound 0.00316 µM, first compound 0.316 µM
[10] = second compound 0.00316 µM, first compound 1 µM
[11] = second compound 0.00316 µM, first compound 3.16 µM
[12] = second compound 0.00316 µM, first compound 10 µM
[13] = second compound 0.01 µM, first compound 0.0316 µM
[14] = second compound 0.01 µM, first compound 0.1 µM
[15] = second compound 0.01 µM, first compound 0.316 µM
[16] = second compound 0.01 µM, first compound 1 µM
[17] = second compound 0.01 µM, first compound 3.16 µM
[18] = second compound 0.01 µM, first compound 10 µM
[19] = second compound 0.0316 µM, first compound 0.0316 µM
[20] = second compound 0.0316 µM, first compound 0.1 µM
[21] = second compound 0.0316 µM, first compound 0.316 µM
[22] = second compound 0.0316 µM, first compound 1 µM
[23] = second compound 0.0316 µM, first compound 3.16 µM
[24] = second compound 0.0316 µM, first compound 10 µM
[25] = second compound 0.1 µM, first compound 0.0316 µM
[26] = second compound 0.1 µM, first compound 0.1 µM
[27] = second compound 0.1 µM, first compound 0.316 µM
[28] = second compound 0.1 µM, first compound 1 µM
[29] = second compound 0.1 µM, first compound 3.16 µM
[30] = second compound 0.1 µM, first compound 10 µM
[31] = second compound 0.316 µM, first compound 0.0316 µM
[32] = second compound 0.316 µM, first compound 0.1 µM
[33] = second compound 0.316 µM, first compound 0.316 µM
[34] = second compound 0.316 µM, first compound 1 µM
[35] = second compound 0.316 µM, first compound 3.16 µM
[36] = second compound 0.316 µM, first compound 10 µM
[37] = second compound 1 µM, first compound 0.0316 µM
[38] = second compound 1 µM, first compound 0.1 µM
[39] = second compound 1 µM, first compound 0.316 µM
[40] = second compound 1 µM, first compound 1 µM
[41] = second compound 1 µM, first compound 3.16 µM
[42] = second compound 1 µM, first compound 10 µM
[43] = compound alone, run of 04/24/2023
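Also: spheroids exposed to agents for seven days before luminescence read.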
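For viability, T/C in this document: luminescent signal used as a stand-in for spheroid viability; percent viability relative to DMSO vehicle control wells taken as 100%.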

C#Cc1c(F)ccc2cc(O)cc(-c3ncc4c(N5CC6CCC(C5)N6)nc(OCC56CCCN5CC(F)C6)nc4c3F)c12 (stereo not drawn) + COc1c(OCCCN2CCOCC2)ccc2c3n(c(=NC(=O)c4cnc(N)nc4)nc12)CCN3 gave an IC50 [1] of over 10 µM, an IC50 [2] of over 10 µM and an IC50 [3] of over 10 µM. The IC50 [4] was over 10 µM, the IC50 [5] was 0.493 µM and the IC50 [6] was under 0.0316 µM. It also gave a viability, T/C [7] of 104%, a viability, T/C [8] of 116% and a viability, T/C [9] of 114%. The viability, T/C [10] was 103%, the viability, T/C [11] was 112% and the viability, T/C [12] was 111%. For the same compound, the viability, T/C [13] was 103%, the viability, T/C [14] was 101% and the viability, T/C [15] was 102%. It also gave a viability, T/C [16] of 114%, a viability, T/C [17] of 103% and a viability, T/C [18] of 103%. It also gave a viability, T/C [19] of 92%, a viability, T/C [20] of 95.5% and a viability, T/C [21] of 103%. It also gave a viability, T/C [22] of 93%, a viability, T/C [23] of 93% and a viability, T/C [24] of 90.9%. For the same compound, the viability, T/C [25] was 87.1%, the viability, T/C [26] was 73.7% and the viability, T/C [27] was 78.5%. The viability, T/C [28] was 78.2%, the viability, T/C [29] was 73.6% and the viability, T/C [30] was 63.5%. It also gave a viability, T/C [31] of 54.7%, a viability, T/C [32] of 49.9% and a viability, T/C [33] of 54.1%. For the same compound, the viability, T/C [34] was 46.4%, the viability, T/C [35] was 44.8% and the viability, T/C [36] was 37.6%. The viability, T/C [37] was 28.4%, the viability, T/C [38] was 27.7% and the viability, T/C [39] was 26.9%. It also gave a viability, T/C [40] of 23.5%, a viability, T/C [41] of 24.6% and a viability, T/C [42] of 17.1%.

CC(Nc1ccc2c(c1)OCCn1cc(N3C(=O)OCC3C(F)F)nc1-2)C(N)=O (stereo not drawn) was tested, and the viability, T/C (compound 0.00316 µM) was 101% [middle of 7 runs], the viability, T/C (compound 0.01 µM) was 103% [middle of 7 runs] and the viability, T/C (compound 0.0316 µM) was 108% [middle of 7 runs]. The viability, T/C (compound 0.1 µM) was 109% [middle of 7 runs], the viability, T/C (compound 0.316 µM) was 100% [middle of 7 runs] and the viability, T/C (compound 1 µM) was 88.5% [middle of 7 runs]. It also gave an IC50 [43] of over 1 µM.

Cc1nc(NC(=O)N2CCCC2C(N)=O)sc1-c1ccnc(C(C)(C)C(F)(F)F)c1 (stereo not drawn) was tested, and the viability, T/C (compound 0.0316 µM) was 102% [middle of 8 runs], the viability, T/C (compound 0.1 µM) was 108% [middle of 8 runs] and the viability, T/C (compound 0.316 µM) was 109% [middle of 8 runs]. For the same compound, the viability, T/C (compound 1 µM) was 107% [middle of 8 runs], the viability, T/C (compound 3.16 µM) was 94% [middle of 8 runs] and the viability, T/C (compound 10 µM) was 72.8% [middle of 8 runs]. For the same compound, the IC50 [43] was over 10 µM.

Compound CC(C)NCC(C(=O)N1CCN(c2ncnc3c2C(C)CC3O)CC1)c1ccc(Cl)cc1 (stereo not drawn) + COc1c(OCCCN2CCOCC2)ccc2c3n(c(=NC(=O)c4cnc(N)nc4)nc12)CCN3 has an IC50 [1] of over 10 µM, an IC50 [2] of over 10 µM and an IC50 [3] of 7.59 µM. The IC50 [4] was 4.86 µM, the IC50 [5] was 0.0351 µM and the IC50 [6] was under 0.0316 µM. For the same compound, the viability, T/C [7] was 101%, the viability, T/C [8] was 103% and the viability, T/C [9] was 106%. It also gave a viability, T/C [10] of 76.1%, a viability, T/C [11] of 68.3% and a viability, T/C [12] of 56.4%. It also gave a viability, T/C [13] of 109%, a viability, T/C [14] of 97.1% and a viability, T/C [15] of 101%. For the same compound, the viability, T/C [16] was 82.2%, the viability, T/C [17] was 64.5% and the viability, T/C [18] was 52.7%. The viability, T/C [19] was 104%, the viability, T/C [20] was 110% and the viability, T/C [21] was 85.6%. The viability, T/C [22] was 84.8%, the viability, T/C [23] was 60% and the viability, T/C [24] was 46.7%. It also gave a viability, T/C [25] of 73.2%, a viability, T/C [26] of 75% and a viability, T/C [27] of 66.2%. The viability, T/C [28] was 60.8%, the viability, T/C [29] was 57.4% and the viability, T/C [30] was 41.4%. For the same compound, the viability, T/C [31] was 47.9%, the viability, T/C [32] was 49% and the viability, T/C [33] was 46.5%. For the same compound, the viability, T/C [34] was 38.5%, the viability, T/C [35] was 37.5% and the viability, T/C [36] was 33.7%. For the same compound, the viability, T/C [37] was 29.4%, the viability, T/C [38] was 28.5% and the viability, T/C [39] was 28.7%. The viability, T/C [40] was 27.1%, the viability, T/C [41] was 26.9% and the viability, T/C [42] was 27.8%.
